From EP2977452A2, “METHODS OF TREATMENT AND PREVENTION OF NEURODEGENERATIVE DISEASES AND DISORDERS” (THOMAS JEFFERSON UNIVERSITY, priority 2007, dated 2008)
“Also recorded” adds a separate entry of the source.

What was measured:
Assay type in all cases: in vivo
[1] = test system: blood brain barrier (BBB); assay: BBB leakage in brain of DM/HC pig model (IHC for pig immunoglobulin); details: DM/HC pigs
Procedure: (§1) Animal model: A diabetic/diabetic hypercholestrolemic pig model (DM/HC) was developed that mimics human-like atherosclerosis. Farm pigs weighing 25-30 kg and aged ∼4 months were made diabetic with a single intravenous injection of 125 mg/kg of streptozotocin (Sicor Pharmaceuticals, Irvine, CA). After stabilization for 1-2 weeks, the animals with elevated levels of plasma glucose (>150 mg/dl) were fed with atherogenic (high-fat) diet as shown in Table 1 (Animal Specialties, Quakertown, PA) to achieve a cholesterol level of approximately 250-800 mg/dl. Table 1. Diet for 2.0% cholesterol diet the components are:
(§2) At one month after stabilization of choleresterol at 250-800mg/dl, the animals were randomized into two experimental groups, DM/HC (hyperglycemia and hypercholesterolemia) group with no treatment and treatment group (10 mg/kg/day of SB-480848, also referred to as 1-(N-(2-(diethylamino)ethyl)-N-(4-(4-trifluoromethylphenyl)benzyl)-aminocarbonylmethyl)-2-(4-fluorobenzyl)thio-5,6-trimethylenepyrimidin-4-one). The animals were sacrificed at 6-month after the randomization. The animal protocol has been approved by the Institutional Animal Care and Use Committee of University of Pennsylvania.
(§3) Two diabetic/hypercholesterolemic groups were evaluated: 1. DM/HC group and 2. DM/HC animals receiving Lp-PLA2 inhibitors. The experiments included: the control group (DM/HC group - 17 pigs) and the experimental group (DM/HC animals receiving LP-PLA2 inhibitors - 20 pigs). In addition blood cholesterol levels were maintained between 300 and 800 mg/dl in experimental animals, this range having been determined to provide a better test model. Blood cholesterol levels were monitored in all animals on a bimonthly basis, as shown in Table 4 and adjustments were made to the fat content of the feed accordingly, as shown in Table 2. The cholesterol and lard percent were in the range of 0.5-2% and 10-25%, respectively, and all animals received feed that contained cholesterol and lard concentration within that range. Blood samples were obtained at baseline, 1 month, 3 months, and 6 months. Less than 1 ml/kg of blood were obtained each time. At the bimonthly blood cholesterol levels tests, levels of total cholesterol, LDL, HDL, VLDL and triglycerides, blood glucose, Lp-PLA2 and […] (PBMCs) were tested (see Table 4).
(§4) Daily dosing began on Day 29, at which time each test animal was given a daily dose of 10 mg/kg SB-480848 (given as bolus equivalent in dog food). Animals were NPO from midnight the night before. Animals were euthanized on Day 196 and tissues harvested immediately.
(§5) Brain tissue preparation. The entire brain was removed within one hour after animals were euthanized. The right hemisphere was fixed in 10% formalin for at least one week. […]

Abeta-42 = Abeta-42 accumulation in brain of DM/HC pig model (IHC); details: DM/HC pigs
Procedure: as §1, §2, §3, §4, §5

glial cells = assay: Glial cell (astrocyte) activation in brain of DM/HC pig model (GFAP IHC); details: DM/HC pigs treated with Lp-PLA2 inhibitor, vs non-treated
Procedure: as §1, with “are: […]” for “are:”
Two diabetic/hypercholesterolemic groups were evaluated: 1. […] In addition blood cholesterol levels were maintained between 300 and 800 mg/dl in experimental animals, this range having been determined to provide a better test model. Blood cholesterol levels were monitored in all animals on a bimonthly basis, as shown in Table 4 and adjustments were made to the fat content of the feed accordingly, as shown in Table 2. […]

[2] = Body weight and behaviour observed during the study in DM/HC pig model; details: DM/HC pigs
Procedure: as §1, §2, §3
Domestic farm pigs, Yorkshire boars, ranging in weight between 25-35 kg were purchased from a local farm and placed in indoor housing under the care of a veterinarian. They were castrated 3-5 days in advance of the study start date. Test pigs were made diabetic by infusing one dose of streptozocin (125 mg/kg) IV in a period of 30 min. […] The blood glucose was measured using a glucometer every day before feeding for the first 14 days and then once a week. […]

[3] = 10 mg/kg/day SB-480848, n=6, vs DM/HC no treatment, 10 mg/kg/day
[4] = 10 mg/kg/day SB-480848, vs DM/HC no treatment
[5] = during the study period, compared to control non-treated animals

In the case of `CCN(CC)CCN(Cc1ccc(-c2ccc(C(F)(F)F)cc2)cc1)C(=O)Cn1c(SCc2ccc(F)cc2)nc(=O)c2c1CCC2` [Lp-PLA2 inhibitor, 1-(N-(2-(diethylamino)ethyl)-N-(4-(4-trifluoromethylphenyl)benzyl)-aminocarbonylmethyl)-2-(4-fluorobenzyl)thio-5,6-trimethylenepyrimidin-4-one], the BBB leakage [1, 3] is reported as “prevents BBB leakage; also recorded: negligible”, the “Ig binding to neurons” value [1, 4] is reported as “no Ig binding to neurons” and the “Ig leakage from blood vessels” value [1, 4] is reported as “no Ig leakage from blood vessels”. The dendrite collapse [1, 4] was “no dendrite collapse”, the sick neurons (Abeta-42; 10 mg/kg/day SB-480848, compared with non-treated animals) was “rarely observed” and the “neuronal Abeta-42 immunoreactivity” value (Abeta-42; [3]) was “prevents Abeta-42 accumulation in neurons; also recorded: no neuronal Abeta-42 immunoreactivity”. The “Abeta42 accumulation in vascular SMCs” value (Abeta-42; [4]) was “prevented Abeta42 accumulation in vascular SMCs”, the “cerebrovascular amyloidosis (arterial Abeta-42 immunostaining)” value (Abeta-42; 10 mg/kg/day SB-480848, vs DM/HC no treatment, 10 mg/kg/day) was “little or no arterial Abeta-42 immunostaining; also recorded: minimized cerebrovascular amyloidosis” and the “activation of glial cells” value (glial cells) was “less activation of glial cells”. For the same compound, the weight ([2]; 10 mg/kg/day SB-480848, end of study, from a baseline of 26.9 kg, control animals 50.9 kg (baseline 30.3 kg)) was 62.5 kg, the “activity in the cage” value [2, 5] was “increased activity in the cage” and the “response to feeding and handling” value [2, 5] was “tended to respond more alertly to feeding and handling”. The “responsiveness to external stimuli” value [2, 5] was “more responsive to external stimuli”.
